Reference: patent US10653700B2, “Composition comprising a therapeutic agent and a respiratory stimulant and methods for the use thereof” (priority 2015, dated 2020)
Structures can show the parent of a compound that is named as a salt. Where two headings read alike, the source gives them in different places.

Legend:
[1] = cited from earlier work
[2] = rat, IV, single dose; cited from earlier work
[3] = humans, severe life-threatening side effects; cited from earlier work
[4] = mice; cited from earlier work
[5] = intravenous; cited from earlier work
[6] = obstructive sleep apnea, four subjects; cited from earlier work
[7] = carotid body denervated rats; cited from earlier work
[8] = lambs; cited from earlier work
AMPA receptor [9] = details: in vivo; cited from earlier work
AMPA receptor [10] = details: human, in vivo; cited from earlier work
[11] = carotid sinus nerve transection; cited from earlier work
[12] = cited from earlier work; remark: listed apart in the source
[13] = minute volume after intravenous doxapram enantiomers in cynomolgus monkeys; format: in vivo; details: for behavioral side effects (agitation, seizures): monkeys
[14] = minute volume after intravenous doxapram enantiomers in rats; format: in vivo; details: for behavioral side effects (agitation, seizures): rats
[15] = blood pressure in conscious rats; format: in vivo; details: doses that were moderately respiratory stimulant
[16] = chronic administration, multi-year trials; cited from earlier work
[17] = cited from earlier work; remark: listed apart in the source
[18] = cited from earlier work; remark: listed apart in the source
[19] = cited from earlier work; remark: listed apart in the source
[20] = in blood; cited from earlier work
[21] = rhesus monkeys; cited from earlier work
[22] = healthy volunteers, room air VE unchanged

CCN1CC(CCN2CCOCC2)C(c2ccccc2)(c2ccccc2)C1=O (racemic) [doxapram, 1-ethyl-4-[2-(4-morpholinyl)ethyl]-3,3-diphenyl-2-pyrrolidinone monohydrochloride, monohydrate]
T1/2 ([1]; 1.5 mg/kg bolus): 3.4 h
peak in serum ([1]; 1.5 mg/kg bolus): around 3 μg/ml
peak plasma concentration ([1]; 300 mg oral administration): 0.96 µg/mL
peak plasma concentration ([1]; IV infusion 3.5 mg/kg/hr for 2 hours): 4.0 µg/mL
T1/2 ([1]; after stop of IV infusion 3.5 mg/kg/hr for 2 hours): 3.9 h
effect on minute ventilation, time span ([1]; in vivo): 0 to 10 min
return of minute ventilation to baseline ([1]; in vivo): ≤ 15 min
LD50 [2]: 72 mg/kg
therapeutic window [3]: 20-40 fold
LD50 [4]: 85 mg/kg
duration of effect [5]: 5 to 12 min
half-life [5]: 3.4 h
onset [5]: 20 to 40 s
peak plasma time [5]: 1 to 2 min
oxyhemoglobin desaturation events [6]: decreased the duration and severity
blood pressure [7]: increased blood pressure

CCN1CC(CCN2CCOCC2=O)C(c2ccccc2)(c2ccccc2)C1=O (centres unmarked) [AHR 5955, ketodoxapram]
activity of metabolite [8]: metabolically active in lambs in a dose dependent fashion

O=C(c1ccc2nonc2c1)N1CCOCC1 [CX717]
effect on respiratory depression (AMPA receptor [9]): able to reverse the respiratory depressive effects
respiratory rate vs. placebo (AMPA receptor [10]): prevented the fall in respiratory rate

CCCNc1nc(NCCC)nc(N(C)OC)n1 [GAL-021]
reduction of GAL-021-induced respiratory stimulation [11]: about 85%
VE (AUE 0-1 h) ([12]; 1-h continuous infusions): statistically significant increases
time to half-maximal effect on VE and ETCO2 ([12]; 1-h continuous infusions): < 10 min
distribution t1/2 ([12]; after infusion): 0.5 h
terminal t1/2 ([12]; after infusion): 5 to 7 h

CCN1CC(CCN2CCOCC2)C(c2ccccc2)(c2ccccc2)C1=O (centres unmarked) [GAL-053]
behavioral side effects (agitation, seizures) [13]: agitation and seizures were restricted to GAL-053
behavioral side effects (agitation, seizures) [14]: agitation and seizures were restricted to GAL-053

CCN1CC(CCN2CCOCC2)C(c2ccccc2)(c2ccccc2)C1=O (centres unmarked) [GAL-054]
increase in blood pressure above baseline values [15]: 15-20%
minute volume ([13]; intravenous, drug naïve and opioid challenged cynomolgus monkeys): dose-dependently increased minute volume
behavioral side effects (agitation, seizures) [13]: minimal behavioral changes
minute volume ([14]; intravenous, drug naïve and opioid challenged rats): dose-dependently increased minute volume
behavioral side effects (agitation, seizures) [14]: minimal behavioral changes

C=CCNc1nc(NCC=C)nc(N2CCN(C(c3ccc(F)cc3)c3ccc(F)cc3)CC2)n1 [almitrine, N,N′-Diallyl-6-[4-(4,4′difluorobenzhydryl)piperazin-1-yl]-1,3,5-triazine-2,4-diyldiamine]
weight loss [16]: > 15%
plasma level at which slope of hypercapnic ventilatory response increased [17, 22]: > 200 ng/mL
plasma level at which slope of hypoxic ventilatory response increased [17, 22]: > 50 ng/mL
increase in VE above baseline ([17]; room air, plasma concentrations exceeding approximately 250 μg/ml): about 11%
LD50 [4]: > 200 mg/kg

COc1ccc2c3c1O[C@H]1C(=O)CC[C@H]4[C@@H](C2)N(C)CC[C@]314.O=C(O)C(O)C(O)C(=O)O [hydrocodone bitartrate]
maximum plasma concentration (Cmax) ([18]; after 15 mg hydrocodone to a human subject, depending on formulation): 1 to 40

COc1ccc2c3c1O[C@H]1C(=O)CC[C@H]4[C@@H](C2)N(C)CC[C@]314 [hydrocodone]
blood and plasma concentration ([18]; acute, fatal overdose): 100-1,600 μg/L
blood and plasma concentration ([18]; people taking the drug therapeutically): 5 to 30 µg/L
blood and plasma concentration ([18]; recreational users): 100 to 200 µg/L
serum half-life ([19]; average): 3.8 h
metabolism attributed to non-cytochrome-catalyzed reactions ([19]; in vivo): Approximately 40%
bound to protein [20]: 20-50%
analgesic potency versus morphine [21]: higher than morphine
